Source: PMC7344333 (Journal of medicinal chemistry, 2019)

How the values were obtained:
[1] = test system: LPA1; settings: read-out: EC50 at LPA1; cited from earlier work
[2] = test system: LPA2; settings: read-out: EC50 at LPA2; cited from earlier work
[3] = biological target: LPA1 receptor (Homo sapiens, UniProt Q92633); experiment: Ca2+ mobilization assay in LPA1 stably transfected RH7777 cells; type: cell-based; settings: for LPA1 agonist activity (in words): highest concentration tested 10 μM
Sequence of LPA1 receptor (Q92633 whole entry): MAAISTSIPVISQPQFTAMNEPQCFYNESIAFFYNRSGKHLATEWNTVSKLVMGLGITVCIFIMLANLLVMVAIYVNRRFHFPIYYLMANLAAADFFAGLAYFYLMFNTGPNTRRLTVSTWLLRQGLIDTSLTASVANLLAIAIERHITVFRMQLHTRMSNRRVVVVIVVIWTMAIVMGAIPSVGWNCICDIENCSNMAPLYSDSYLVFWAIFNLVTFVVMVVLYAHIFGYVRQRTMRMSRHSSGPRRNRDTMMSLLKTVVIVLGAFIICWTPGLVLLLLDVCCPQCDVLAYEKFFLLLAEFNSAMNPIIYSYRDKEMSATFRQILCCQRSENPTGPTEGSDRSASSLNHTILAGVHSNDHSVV

[4] = stability studies in PBS and cellular culture medium; type: physicochemical; settings: up to 8 hours at 37 °C
[5] = test system: mice; experiment: acetic acid-induced writhing assay; type: in vivo, mouse
[6] = test system: DRG neurons (nociceptors); experiment: multielectrode array; type: cell-based, rat; settings: 10 μM, two consecutive pulses
[7] = test system: B103 neuroblastoma cells overexpressing LPA1 receptor; experiment: transwell migration assay; type: cell-based; settings: 1 μM in lower chamber, 5 h
[8] = test system: mice; experiment: open field test, exploratory and locomotor activity; type: in vivo, mouse; settings: at the selected dose (10 mg/kg i.p.)
[9] = test system: B103 neuroblastoma cells overexpressing EGFP-LPA1 receptor; experiment: neurite retraction assay; type: cell-based; settings: 15 minutes treatment
[10] = test system: dorsal root ganglia (DRG) neurons; experiment: calcium microfluorography in primary DRG sensory neurons; type: cell-based, rat; settings: two repetitive applications of 10 μM
[11] = test system: mice with SNI; experiment: spared nerve injury; type: in vivo, mouse; settings: 10 mg/kg i.p. daily; 3, 10 and 21 days post-surgery, vs vehicle
[12] = test system: EGFP-LPA1 fusion receptor; experiment: LPA1 receptor internalization assay; settings: 1 μM

Q: Which results are given for CCCCCCCC/C=C\CCCCCCCC(=O)NCCC(=O)P(=O)(O)O [Compound 2]?
A: EC50 [1]: 221 nM; EC50 [2]: 1090 nM

Q: For CCCCCCCCCC/C=C\CCCCCCCC(=O)OC[C@@H](O)COP(=O)(O)O [Compound 16, (2R)-2-Hydroxy-3-(phosphonooxy)propyl (9Z)-icos-9-enoate], which “LPA1 agonist activity (in words)” value [3] is on record?
A: inactive

Q: Which “LPA1 agonist activity (in words)” value [3] does the source give for O=C(CCCCCCCc1ccccc1)OC[C@@H](O)COP(=O)(O)O [Compound 19, (2R)-2-Hydroxy-3-(phosphonooxy)propyl 8-phenyloctanoate] here?
A: inactive

Q: Which results are given for O=C(CCCCCCCCCc1ccccc1)O[C@H](CBr)COP(=O)(O)O [Compound (S)-17, (2S)-1-Bromo-3-(phosphonooxy)propan-2-yl 10-phenyldecanoate]?
A: compound remaining (stability) ([4]; PBS): > 85%; compound remaining (stability) ([4]; culture media): > 85%; number of writhes after acute single administration [5]: increased the number of writhes in the first minutes after the administration; neuronal firing of action potentials on repeated application [6]: provoked the firing of action potentials that were attenuated upon a second instillation; cell migration [7]: induced cell migration; exploratory or locomotor activity [8]: did not induce any alteration in the exploratory or locomotor activity; neurite retraction [9]: induced neurite retraction; Ca2+ response on repeated application [10]: induced a reduction of the Ca^2+ responses; mechanical nociceptive threshold [11]: significantly superior compared to vehicle-treated mice

Q: What does the source list for CCCCCCCC/C=C\CCCCCCCC(=O)OC[C@@H](O)COP(=O)(O)O [LPA, 1-oleoyl-sn-glycerol-3-phosphate, reference compound]?
A: LPA1 internalization [12]: the receptor is internalized; neuronal firing of action potentials on repeated application [6]: provoked the firing of action potentials that were attenuated upon a second instillation; Ca2+ response on repeated application [10]: the Ca^2+ response is notably reduced in a second LPA application; Ca2+ response relative to 10 μM ionomycin ([3]; 10 μM LPA, positive control): 30–33%; Emax at 10 µM ([3]; RH7777): 100%
